According to patent publication US20150072969A1, “PHENYL ALKANOIC ACID DERIVATIVES AS GPR AGONISTS” (PIRAMAL ENTERPRISES LIMITED, priority 2012, published 2015):

What follows are compounds tested against T1, human GPR40 (Homo sapiens, UniProt O14842) (assay: Inositol phosphate accumulation assay in FFAR1 (GPR40) CHOK1 clone). Details: GPR40 agonist activity; intracellular inositol phosphate release in CHOK1 cells stably expressing recombinant human GPR40; 1 h incubation at 37° C.
T1 construct: expressed in transfected cells
T1 sequence (O14842 whole entry): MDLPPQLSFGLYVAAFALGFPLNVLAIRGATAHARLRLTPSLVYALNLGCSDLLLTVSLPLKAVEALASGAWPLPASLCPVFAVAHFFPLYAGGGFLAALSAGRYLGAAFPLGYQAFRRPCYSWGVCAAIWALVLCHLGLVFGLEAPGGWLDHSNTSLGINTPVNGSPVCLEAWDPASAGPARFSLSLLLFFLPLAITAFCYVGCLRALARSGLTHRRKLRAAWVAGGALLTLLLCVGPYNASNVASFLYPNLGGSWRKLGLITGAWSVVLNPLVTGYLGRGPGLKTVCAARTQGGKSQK
Assay type: cell-based
Experimental: The inositol phosphate accumulation assay was performed to characterise the GPR40 agonist activity of the compounds of the present invention.
The assay was carried out in accordance with the method substantially as described in Diabetes, 2008, 57(8):2211-2219 and PLoS One, 2011, 6(11):e27270.
A stable FFAR1 (GPR40) CHOK1 clone was used to determine the GPR40 agonist activity of the test compounds (compounds of the present invention synthesized in the above Examples). The stable FFAR1 (GPR40) CHOK1 clone expressing recombinant human GPR40 was generated according to the procedure described herein below.
Full-length human GPR40 cDNA (Accession Number: NM_005303) was cloned into mammalian expression vector (pReceiver) and was stably transfected into (Chinese Hamster Ovary) CHOK1 cells using Amaxa technology. 2 μg of pReceiver hGPR40 were transfected into 1×10^6 CHOK1 cells in 6 well plates. The cells were split into three 100 mm cell culture plates on the second day and geneticin (800 μg/ml) was added to the cell culture on the third day. The selection medium comprising Ham's F-12 K supplemented with FBS (10%) and geneticin (800 μg/ml) was changed every three days until colonies were formed. The colonies isolated were further purified (single cell cloning) after 14 days to obtain pure isogenic single cell homogenous population of cells expressing the GPR40 receptor protein on the cell surface. GPR40 receptor expression on cell surface was measured by flow cytometry. The in-house transgenic cell line (clone) created was labeled as FFAR1 (GPR40) CHOK1 clone.
FFAR1 (GPR40) CHOK1 cells were suspended in culture medium comprising Ham's F-12 K supplemented with FBS (10%) and geneticin (800 μg/ml). Cells were seeded at a density of 2×10^4 cells per well in a 384 well tissue culture plate and cultured overnight. The medium was discarded and the cells were further resuspended in a stimulation buffer comprising HEPES (10 mM), glucose (5.5 mM), CaCl2 (1 mM), NaCl (150 mM), KCl (4.2 mM), MgCl2 (0.5 mM) and LiCl (50 mM) having a pH of 7.6. The test compounds (representative compounds of Formula (I)) 10 mM stock were prepared in DMSO and subsequently log fold dilution of the test compounds were carried out in the stimulation buffer. Various concentrations of the test compounds and the standard DMSO solution were added to each well. The plates were further incubated at 37° C., 5% CO2 incubator for 1 h. The final concentration of the test compounds in the each well varied from 1 μM to 10 μM. The DMSO concentration in the assay was 0.1% or less. After incubation, lysis reagent and anti-Tb conjugate were added to each well. The intracellular Inositol Phosphate release and accumulation in the test compounds were measured by the binding ability of the anti-Tb conjugate with the inositol phosphate inherently produced in each well as compared with the inositol phosphate coupled to dye d2 added externally to each well. The plates were then read using Perkin Elmer (Envision) plate reader and the fluorescence signal was captured. The EC50 values for the test compounds were calculated from the non linear regression sigmoidal curve graphs plotted between the concentrations of the test compounds and the fluorescence intensity.
Work on `O=C(O)CC1(c2ccc(OCc3ccc(-c4ccccc4)cc3)c(F)c2)COC1` [Example 14, 2-(3-(4-([1,1′-Biphenyl]-4-ylmethoxy)-3-fluorophenyl)oxetan-3-yl)acetic acid] yielded an EC50 of over 500 nM.
`O=C(O)CC1(c2ccc(OCc3cccc(F)c3)cc2)COC1` [Example 102, 2-(3-(4-((3-Fluorobenzyl)oxy)phenyl)oxetan-3-yl)acetic acid] was tested, and the EC50 was over 500 nM.
`COc1cc(-c2cccc(COc3ccc(C4(CC(=O)O)COC4)cc3)c2)ccc1OCCCS(C)(=O)=O` [Example 81, 2-(3-(4-((3′-Methoxy-4′-(3-(methylsulfonyl)propoxy)-[1,1′-biphenyl]-3-yl)methoxy)phenyl)oxetan-3-yl)acetic acid] was tested, and the EC50 was over 500 nM.
In the case of `Cc1cc(OCCCS(C)(=O)=O)cc(C)c1-c1cccc(COc2ccc(C3(CC(=O)O)COC3)cc2)c1` [Example 10, 2-(3-(4-((2′,6′-Dimethyl-4′-(3-(methylsulfonyl)propoxy)-[1,1′-biphenyl]-3-yl)methoxy)phenyl)oxetan-3-yl)acetic acid], the EC50 is reported as under 100 nM.
`O=C(O)CC1(c2ccc(OCc3ccc(-c4ccccc4)cc3)cc2)COC1` [Example 8, 2-(3-(4-([1,1′-Biphenyl]-4-ylmethoxy)phenyl)oxetan-3-yl)acetic acid] gave an EC50 of 100 to 500 nM.
For `Cc1ccc(COc2ccc(C3(CC(=O)O)COC3)cc2)cc1C(F)(F)F` [Example 28, 2-(3-(4-((4-Methyl-3-(trifluoromethyl)benzyl)oxy)phenyl)oxetan-3-yl)acetic acid], the EC50 was 100 to 500 nM.
In the case of `Cc1cc(OCC2CCCO2)cc(C)c1-c1cccc(COc2ccc(C3(CC(=O)O)COC3)cc2)c1` (stereo not shown) [Example 47, 2-(3-(4-((2′,6′-Dimethyl-4′-((tetrahydrofuran-2-yl)methoxy)-[1,1′-biphenyl]-3-yl)methoxy)phenyl)oxetan-3-yl)acetic acid], the EC50 is reported as under 100 nM.
For `Cc1cc(OC[C@@H]2CCOC2)cc(C)c1-c1cccc(COc2ccc(C3(CC(=O)O)COC3)cc2)c1` [Example 49, (R)-2-(3-(4-((2′,6′-dimethyl-4′-((tetrahydrofuran-3-yl)methoxy)-[1,1′-biphenyl]-3-yl)methoxy)phenyl)oxetan-3-yl)acetic acid], the EC50 was under 100 nM.
`O=C(O)CC1(c2ccc(OCc3cccc(-c4ccc(OCC5CCOCC5)cc4Cl)c3)cc2)COC1` [Example 72, 2-(3-(4-((2′-Chloro-4′-((tetrahydro-2H-pyran-4-yl)methoxy)-[1,1′-biphenyl]-3-yl)methoxy)phenyl)oxetan-3-yl)acetic acid] gave an EC50 of under 100 nM.
With `O=C(O)CC1(c2ccc(OCc3cccc(-c4cnc(N5CCOCC5)nc4)c3)cc2)COC1` [Example 108, 2-(3-(4-((3-(2-Morpholinopyrimidin-5-yl)benzyl)oxy)phenyl)oxetan-3-yl)acetic acid] the EC50 was under 100 nM.
`O=C(O)CC1(c2ccc(OCc3cccc(-c4ccc(OCC5CCS(=O)(=O)CC5)cc4Cl)c3)cc2)COC1` [Example 70, 2-(3-(4-((2′-Chloro-4′-((1,1-dioxidotetrahydro-2H-thiopyran-4-yl)methoxy)-[1,1′-biphenyl]-3-yl)methoxy)phenyl)oxetan-3-yl)acetic acid] gave an EC50 of under 100 nM.
For `Cc1cc(OCCCS(C)(=O)=O)cc(C)c1-c1cccc(COc2ccc(C3(CC(=O)O)COC3)cc2F)c1` [Example 16, 2-(3-(4-((2′,6′-Dimethyl-4′-(3-(methylsulfonyl)propoxy)-[1,1′-biphenyl]-3-yl)methoxy)-3-fluorophenyl)oxetan-3-yl)acetic acid], the EC50 was over 500 nM.
`O=C(O)CC1(c2ccc(OCc3cccc(-c4ccccc4)c3)c(F)c2)COC1` [Example 12, 2-(3-(4-([1,1′-Biphenyl]-3-ylmethoxy)-3-fluorophenyl)oxetan-3-yl)acetic acid] showed an EC50 of over 500 nM.
Work on `CCCCSc1ccc(-c2cccc(COc3ccc(C4(CC(=O)O)COC4)cc3)c2)cc1` [Example 85, 2-(3-(4-((4′-(Butylthio)-[1,1′-biphenyl]-3-yl)methoxy)phenyl)oxetan-3-yl)acetic acid] yielded an EC50 of over 500 nM.
`Cc1cc(OCCCS(C)(=O)=O)ccc1-c1cccc(COc2ccc(C3(CC(=O)O)COC3)cc2)c1` [Example 77, 2-(3-(4-((2′-Methyl-4′-(3-(methylsulfonyl)propoxy)-[1,1′-biphenyl]-3-yl)methoxy)phenyl)oxetan-3-yl)acetic acid] gave an EC50 of under 100 nM.
In the case of `Cc1cc(OCC2CCS(=O)(=O)C2)cc(C)c1-c1cccc(COc2ccc(C3(CC(=O)O)COC3)cc2)c1` (stereo not shown) [Example 53, 2-(3-(4-((4′-((1,1-Dioxidotetrahydrothiophen-3-yl)methoxy)-2′,6′-dimethyl-[1,1′-biphenyl]-3-yl)methoxy)phenyl)oxetan-3-yl)acetic acid], the EC50 is reported as under 100 nM.
